The values that follow come from ChEMBL document CHEMBL5712074, “Divergent clonal evolution of castration-resistant neuroendocrine prostate cancer” (Nat Med, 2016).

The test system of this experiment is NCI-H660. In words: Cytotoxicity against human NCI-H660 cells assessed as decrease in cell viability at 5 to 10 uM incubated for 48 hrs by CellTiter-Blue assay. The class given is functional, cell-based. Particulars: dose 5-10 µM.

Calls of active or inactive are those of the source. No cut-off for these calls is given here.

Turning to `CCCc1cc(C)[nH]c(=O)c1CNC(=O)c1cc(-c2ccnc(N3CCN(C)CC3)c2)cc2c1cnn2C(C)C`, the result was Active.
